Experimental data from PMC6328430, “Radiation dosimetry of [^68Ga]PSMA-11 in low-risk prostate cancer patients” (EJNMMI Physics, 2019).
Read-outs that look alike come from different tables or passages of the source.

Tests used:
[1] = PET/CT organ uptake and time-integrated activity coefficients after i.v. [^68Ga]PSMA-11; format: in vivo, human
Experimental: The PET/CT scanning was performed at the University Hospital of Umeå on a Discovery 690 [18] The first session, aimed to depict the fast tracer distribution, consisted of three head-to-thigh scans commencing at times 0, 10, and 20 min post-injection, followed by a head-to-toe whole-body scan approximately 30 min post-injection. The remaining three acquisitions were all head-to-toe scans, commencing at 90 min, 180 min, and 255 min post-injection. CT scans were acquired with 120 kV, 10 mA, 0.5 s/revolution, and 2.5-mm slice thickness, except for the whole-body scan at the first session which was acquired with 30 mA (Fig. 1) to provide adequate anatomical information. All PET scans were acquired using time-of-flight mode, with 60 s per bed position, and 11 slices bed overlap. PET images, corrected for attenuation and scatter, were reconstructed using the scanner implementation of the 3D iterative ordered subset expectation maximization (OSEM) reconstruction including time-of-flight (named VuePoint HD ViP) with 2 iterations, 24 subsets, 6.4-mm post-filter, and a 70-cm field-of-view, yielding a 128 × 128 matrix (5.5 × 5.5 × 3.27 mm^3 voxels). PET images were decay-corrected to start of each scan.
Urine was collected up to 4 h post-injection, and the total voided volume was weighed. From each voided volume, a 1-mL sample was weighed and radioactivity was measured using a well counter (NaI-scintillator), and the activity concentration in Bq/mL was calculated. The activity concentration and voided volume were used to calculate the total voided activity.
(§1) Volumes of interest (VOIs) were delineated for the kidneys, liver, lungs, spleen, salivary glands, and total body by a medical physicist and a radiologist using RayStation (RaySearch Laboratories, Stockholm, Sweden). Using the MICE Toolkit (Nonpi Medical AB, Umea, Sweden), the median VOI activity-concentration (Cmedian(t)) was extracted and used to calculate the fraction injected activity for each imaging session. For a specific VOI, the retention, U(t), in an organ with mass M [g], expressed as fraction of injected activity, is calculated as:1 Ut=Cmediant×M/A0 where A0 is the administered activity [Bq] and t is the time after administration. […] The remaining activity was assumed to be homogeneously distributed in the rest of the body, and the remaining activity in the body could therefore be calculated by subtracting the activities in the specific organ, blood, urinary bladder content, and urine from the decay-corrected administered activity.
(§2) The uptake was fitted to a bi-exponential or mono-exponential function of time post-injection using the software SAAM II (The Epsilon Group, Charlottesville, VA, USA). This function is used to calculate the time-integrated activity coefficient (TIAC), i.e., total number of decays per administered activity. […] The cumulated activity in the urinary bladder was calculated in a similar way, using measured data for urine plus bladder content. ICRP uses 3.5-h voiding interval for calculating absorbed doses from radiopharmaceuticals; thus, the activity in the bladder is zeroed at 3.5 and 7 h post-injection, before calculating the cumulated activity in accordance with Eq. 2.

[2] = Blood activity clearance from venous blood samples (bi-exponential fit); format: in vivo, human
Experimental: Venous blood samples were drawn at 45 min, 85 min, 175 min, and 245 min post-injection. The activity concentrations of these samples were measured in the abovementioned well counter. No metabolite analysis of the samples was performed, since this is beyond the scope of this dosimetry study.
as §2
TIACs for the organs used in the dose calculations can be seen in Table 1. […] The fitted blood curve was calculated on pooled normalized data and forced through the point 100% at time zero.

[3] = Absorbed organ dose and effective dose calculation (IDAC-Dose 2.1, ICRP 133/103; Monte Carlo for eye lenses); format: in vivo, human
Source text: as §1, §2
The absorbed dose to the organs was calculated using the software IDAC-Dose 2.1 [22] which uses specific absorbed fractions for photons and electron from ICRP Publication 133 [19], […]
To calculate the dose to the lacrimal glands, spherical shape was assumed, with a mass of 0.7 g each, using the “sphere module” in IDAC-Dose 2.1. […] The lens of the eyes is a target organ in ICRP Publication 133 [19]; however, the lacrimal glands are not identified as source organs in the ICRP phantoms and an absorbed fraction is not presented in this report. Monte Carlo methods were therefore used to calculate absorbed fractions using the ICRP/ICRU voxel phantom for an adult. For the image activity concentration, the highest voxel was used, instead of the median. The reason for this is that the small size of the glands results in a significant “partial volume effect” [26].

[4] = cited from earlier work
[5] = cited from earlier work; remark: listed apart in the source
[6] = median of six patients, ICRP/ICRU voxel phantom organ mass
[7] = bi-exponential fit, pooled normalized data
[8] = six participants, sphere of 0.7 g

O=C([O-])CN(CCN(CC(=O)[O-])Cc1cc(CCC(=O)NCCCCCC(=O)NCCCC[C@H](NC(=O)N[C@@H](CCC(=O)O)C(=O)O)C(=O)O)ccc1[O-])Cc1cc(CCC(=O)O)ccc1[O-].[68Ga+3].[OH3+] [[^68Ga]PSMA-11, ^68Ga-labeled Glu-NH-CO-NH-Lys(Ahx)-HBED-CC]
Accumulation in kidneys ([1]; intravenous injection, PET/CT): 7% | Accumulation in liver ([1]; intravenous injection, PET/CT): 15% | Accumulation in salivary glands ([1]; intravenous injection, PET/CT): 0.5% | Accumulation in spleen ([1]; intravenous injection, PET/CT): 2% | Liver TIAC, conventional method ([1]; measured organ volumes (liver mass 800–1200 g)): 0.10 h | Time-integrated activity coefficient, Blood, Median ([1]; median of six patients): 0.27 h | Time-integrated activity coefficient, Urinary bladder contents, Median ([1]; median of six patients, 3.5-h voiding interval): 0.11 h | Time-integrated activity coefficient, Kidneys, Median [1, 6]: 0.22 h | Time-integrated activity coefficient, Liver, Median [1, 6]: 0.23 h | Time-integrated activity coefficient, Spleen, Median [1, 6]: 0.021 h | Time-integrated activity coefficient, Salivary glands, Median ([1]; median of six patients, estimated directly from uptake data (Eq. 2)): 0.020 h | Time-integrated activity coefficient, Lacrimal glands, Median ([1]; median of six patients, highest voxel x factor 2, 0.7 g each): 0.00053 h | Time-integrated activity coefficient, Remainder, Median ([1]; median of six patients, rest of the body): 0.68 h | Time-integrated activity coefficient, Blood, P1 ([1]; patient P1): 0.32 h | Time-integrated activity coefficient, Kidneys, P1 ([1]; patient P1): 0.22 h | Time-integrated activity coefficient, Lacrimal glands, P1 ([1]; patient P1): 0.00075 h | Time-integrated activity coefficient, Liver, P1 ([1]; patient P1): 0.26 h | Time-integrated activity coefficient, Remainder, P1 ([1]; patient P1): 0.51 h | Time-integrated activity coefficient, Salivary glands, P1 ([1]; patient P1): 0.036 h | Time-integrated activity coefficient, Spleen, P1 ([1]; patient P1): 0.049 h | Time-integrated activity coefficient, Urinary bladder contents, P1 ([1]; patient P1): 0.12 h | Time-integrated activity coefficient, Blood, P2 ([1]; patient P2): 0.26 h | Time-integrated activity coefficient, Kidneys, P2 ([1]; patient P2): 0.27 h | Time-integrated activity coefficient, Lacrimal glands, P2 ([1]; patient P2): 0.00055 h | Time-integrated activity coefficient, Liver, P2 ([1]; patient P2): 0.15 h | Time-integrated activity coefficient, Remainder, P2 ([1]; patient P2): 0.76 h | Time-integrated activity coefficient, Salivary glands, P2 ([1]; patient P2): 0.020 h | Time-integrated activity coefficient, Spleen, P2 ([1]; patient P2): 0.012 h | Time-integrated activity coefficient, Urinary bladder contents, P2 ([1]; patient P2): 0.094 h | Time-integrated activity coefficient, Blood, P3 ([1]; patient P3): 0.36 h | Time-integrated activity coefficient, Kidneys, P3 ([1]; patient P3): 0.19 h | Time-integrated activity coefficient, Lacrimal glands, P3 ([1]; patient P3): 0.00038 h | Time-integrated activity coefficient, Liver, P3 ([1]; patient P3): 0.22 h | Time-integrated activity coefficient, Remainder, P3 ([1]; patient P3): 0.62 h | Time-integrated activity coefficient, Salivary glands, P3 ([1]; patient P3): 0.021 h | Time-integrated activity coefficient, Spleen, P3 ([1]; patient P3): 0.017 h | Time-integrated activity coefficient, Urinary bladder contents, P3 ([1]; patient P3): 0.13 h | Time-integrated activity coefficient, Blood, P4 ([1]; patient P4): 0.22 h | Time-integrated activity coefficient, Kidneys, P4 ([1]; patient P4): 0.23 h | Time-integrated activity coefficient, Lacrimal glands, P4 ([1]; patient P4): 0.00093 h | Time-integrated activity coefficient, Liver, P4 ([1]; patient P4): 0.23 h | Time-integrated activity coefficient, Remainder, P4 ([1]; patient P4): 0.78 h | Time-integrated activity coefficient, Salivary glands, P4 ([1]; patient P4): 0.017 h | Time-integrated activity coefficient, Spleen, P4 ([1]; patient P4): 0.026 h | Time-integrated activity coefficient, Urinary bladder contents, P4 ([1]; patient P4): 0.041 h | Time-integrated activity coefficient, Blood, P5 ([1]; patient P5): 0.25 h | Time-integrated activity coefficient, Kidneys, P5 ([1]; patient P5): 0.19 h | Time-integrated activity coefficient, Lacrimal glands, P5 ([1]; patient P5): 0.00052 h | Time-integrated activity coefficient, Liver, P5 ([1]; patient P5): 0.19 h | Time-integrated activity coefficient, Remainder, P5 ([1]; patient P5): 0.73 h | Time-integrated activity coefficient, Salivary glands, P5 ([1]; patient P5): 0.030 h | Time-integrated activity coefficient, Spleen, P5 ([1]; patient P5): 0.019 h | Time-integrated activity coefficient, Urinary bladder contents, P5 ([1]; patient P5): 0.16 h | Time-integrated activity coefficient, Blood, P6 ([1]; patient P6): 0.28 h | Time-integrated activity coefficient, Kidneys, P6 ([1]; patient P6): 0.26 h | Time-integrated activity coefficient, Lacrimal glands, P6 ([1]; patient P6): 0.0002 h | Time-integrated activity coefficient, Liver, P6 ([1]; patient P6): 0.31 h | Time-integrated activity coefficient, Remainder, P6 ([1]; patient P6): 0.63 h | Time-integrated activity coefficient, Salivary glands, P6 ([1]; patient P6): 0.017 h | Time-integrated activity coefficient, Spleen, P6 ([1]; patient P6): 0.022 h | Time-integrated activity coefficient, Urinary bladder contents, P6 ([1]; patient P6): 0.050 h | Biological half-life in blood, fast component [2, 7]: 6.5 min | Biological half-life in blood, slow component [2, 7]: 4.4 h | Fraction of blood activity cleared with the 6.5 min half-life ([2]; fast component): 91% | Fraction of blood activity cleared with the 4.4 h half-life ([2]; slow component): 9% | Liver dose factor, conventional method ([3]; TIAC derived with measured organ volumes (liver mass 800–1200 g)): 0.034 mGy/MBq | Effective dose per administration ([3]; administered activity of 2 MBq/kg to a person weighting 80 kg): 3.5 mSv | Effective dose ([3]; calculated for comparison using ICRP Publication 60): 0.022 mSv/MBq | Effective dose ([3]; median, ICRP Publication 103, male component only): 0.022 mSv/MBq | Absorbed dose coefficient, Colon wall, Median ([3]; six participants): 0.014 mGy/MBq | Absorbed dose coefficient, Colon wall, Range ([3]; six participants): 0.012–0.014 mGy/MBq | Absorbed dose coefficient, Endosteum, Median ([3]; six participants): 0.011 mGy/MBq | Absorbed dose coefficient, Endosteum, Range ([3]; six participants): 0.0095–0.011 mGy/MBq | Absorbed dose coefficient, Esophagus, Median ([3]; six participants): 0.014 mGy/MBq | Absorbed dose coefficient, Esophagus, Range ([3]; six participants): 0.011–0.015 mGy/MBq | Absorbed dose coefficient, Kidneys, Median ([3]; six participants): 0.24 mGy/MBq | Absorbed dose coefficient, Kidneys, Range ([3]; six participants): 0.20–0.28 mGy/MBq | Absorbed dose coefficient, Liver, Median ([3]; six participants): 0.053 mGy/MBq | Absorbed dose coefficient, Liver, Range ([3]; six participants): 0.038–0.071 mGy/MBq | Absorbed dose coefficient, Lungs, Median ([3]; six participants): 0.016 mGy/MBq | Absorbed dose coefficient, Lungs, Range ([3]; six participants): 0.013–0.017 mGy/MBq | Absorbed dose coefficient, Red bone marrow, Median ([3]; six participants): 0.015 mGy/MBq | Absorbed dose coefficient, Red bone marrow, Range ([3]; six participants): 0.014–0.015 mGy/MBq | Absorbed dose coefficient, Salivary glands, Median ([3]; six participants): 0.089 mGy/MBq | Absorbed dose coefficient, Salivary glands, Range ([3]; six participants): 0.074–0.15 mGy/MBq | Absorbed dose coefficient, Skin, Median ([3]; six participants): 0.0067 mGy/MBq | Absorbed dose coefficient, Skin, Range ([3]; six participants): 0.0059–0.0069 mGy/MBq | Absorbed dose coefficient, Spleen, Median ([3]; six participants): 0.046 mGy/MBq | Absorbed dose coefficient, Spleen, Range ([3]; six participants): 0.030–0.10 mGy/MBq | Absorbed dose coefficient, Stomach wall, Median ([3]; six participants): 0.015 mGy/MBq | Absorbed dose coefficient, Stomach wall, Range ([3]; six participants): 0.015–0.017 mGy/MBq | Absorbed dose coefficient, Testes, Median ([3]; six participants): 0.0087 mGy/MBq | Absorbed dose coefficient, Testes, Range ([3]; six participants): 0.0074–0.0089 mGy/MBq | Absorbed dose coefficient, Thyroid, Median ([3]; six participants): 0.010 mGy/MBq | Absorbed dose coefficient, Thyroid, Range ([3]; six participants): 0.0090–0.010 mGy/MBq | Absorbed dose coefficient, Urinary bladder wall, Median ([3]; six participants): 0.057 mGy/MBq | Absorbed dose coefficient, Urinary bladder wall, Range ([3]; six participants): 0.028–0.084 mGy/MBq | Absorbed dose coefficient, Eye lenses, Median ([3]; six participants, Monte Carlo methods for lacrimal gland contribution): 0.0051 mGy/MBq | Absorbed dose coefficient, Lacrimal glands, Median [3, 8]: 0.11 mGy/MBq | Absorbed dose coefficient, Lacrimal glands, Range [3, 8]: 0.043–0.2 mGy/MBq | Kidney dose ([4]; Afshar-Oromieh et al. ref 15): 0.262 mGy/MBq | Kidney dose ([4]; Demirci et al. ref 16): 0.246 mGy/MBq | Lacrimal glands absorbed dose ([4]; unit density sphere model, Demirci et al. ref 16): 0.04 ± 0.008 mGy/MBq

C[11C](=O)O [[^11C]Acetate]
Effective dose [5]: 0.0049 mSv/MBq

C[N+](C)(C[18F])CCO [[^18F]Choline]
Effective dose [5]: 0.01 mSv/MBq
